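Dose response: 5 concentrations. Exposure: 48 h. Format: 96-well plates. Endpoint: linear interpolation; highest concentration if not reached. TGI: total growth inhibition.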
Experiments:
Assay in all cases: NCI-60 cell line screen, 48 h
HCC-2998 colon = system: HCC-2998 colon
RXF 393 renal = system: RXF 393 renal
LXFL 529 NSCLC = system: LXFL 529 NSCLC
NCI-H226 lung = system: NCI-H226 lung
HOP-62 NSCLC = system: HOP-62 NSCLC
HT29 colon = system: HT29 colon
HOP-92 NSCLC = system: HOP-92 NSCLC
CCRF-CEM leukemia = system: CCRF-CEM leukemia
MOLT-4 leukemia = system: MOLT-4 leukemia
HL-60(TB) leukemia = system: HL-60(TB) leukemia
786-0 renal = system: 786-0 renal
OVCAR-8 ovarian = system: OVCAR-8 ovarian
SW-620 colon = system: SW-620 colon
ACHN renal = system: ACHN renal
OVCAR-5 ovarian = system: OVCAR-5 ovarian
NCI-H23 lung = system: NCI-H23 lung
SK-MEL-2 melanoma = system: SK-MEL-2 melanoma
HCT-116 colon = system: HCT-116 colon
U251 CNS = system: U251 CNS
M19-MEL melanoma = system: M19-MEL melanoma
SK-OV-3 ovarian = system: SK-OV-3 ovarian
CAKI-1 renal = system: CAKI-1 renal
TK-10 renal = system: TK-10 renal
SNB-19 CNS = system: SNB-19 CNS
SNB-75 CNS = system: SNB-75 CNS
OVCAR-4 ovarian = system: OVCAR-4 ovarian
DLD-1 colon = system: DLD-1 colon
XF 498 CNS = system: XF 498 CNS
K-562 leukemia = system: K-562 leukemia
NCI-H522 lung = system: NCI-H522 lung
EKVX NSCLC = system: EKVX NSCLC
IGROV1 ovarian = system: IGROV1 ovarian
SN12C renal = system: SN12C renal
SK-MEL-5 melanoma = system: SK-MEL-5 melanoma
SF-295 CNS = system: SF-295 CNS
DMS 114 small cell lung = system: DMS 114 small cell lung
KM12 colon = system: KM12 colon
RPMI-8226 leukemia = system: RPMI-8226 leukemia
MALME-3M melanoma = system: MALME-3M melanoma
SK-MEL-28 melanoma = system: SK-MEL-28 melanoma
SF-268 CNS = system: SF-268 CNS
SNB-78 CNS = system: SNB-78 CNS
LOX IMVI melanoma = system: LOX IMVI melanoma
COLO 205 colon = system: COLO 205 colon
UO-31 renal = system: UO-31 renal
UACC-257 melanoma = system: UACC-257 melanoma
KM20L2 colon = system: KM20L2 colon
A549 NSCLC = system: A549 NSCLC
NCI-H460 lung = system: NCI-H460 lung
SF-539 CNS = system: SF-539 CNS
OVCAR-3 ovarian = system: OVCAR-3 ovarian
M14 melanoma = system: M14 melanoma
SR leukemia = system: SR leukemia
DMS 273 small cell lung = system: DMS 273 small cell lung
UACC-62 melanoma = system: UACC-62 melanoma

CCc1ccccc1NC(=O)C1=C(C)NC(C)=C(C(=O)Nc2c(CC)cccc2CC)C1c1ccc2c(c1)OCO2 (centres undefined)
TGI (HCC-2998 colon): 30.2 µM | TGI (RXF 393 renal): 25.4 µM | TGI (LXFL 529 NSCLC): 33 µM | TGI (NCI-H226 lung): 43.4 µM | TGI (HOP-62 NSCLC): 35 µM | TGI (HT29 colon): 32.2 µM | TGI (HOP-92 NSCLC): 36.4 µM | TGI (CCRF-CEM leukemia): 51.4 µM | TGI (MOLT-4 leukemia): 57.5 µM | TGI (HL-60(TB) leukemia): 58.4 µM | TGI (786-0 renal): 34.8 µM | TGI (OVCAR-8 ovarian): 84.5 µM | TGI (SW-620 colon): 43.2 µM | TGI (ACHN renal): 35.1 µM | TGI (OVCAR-5 ovarian): 36.1 µM | TGI (NCI-H23 lung): 31.2 µM | TGI (SK-MEL-2 melanoma): 29.5 µM | TGI (HCT-116 colon): 30.6 µM | TGI (U251 CNS): 30 µM | TGI (M19-MEL melanoma): 54.7 µM | TGI (SK-OV-3 ovarian): > 100 µM | TGI (CAKI-1 renal): 39.7 µM | TGI (TK-10 renal): 53.5 µM | TGI (SNB-19 CNS): 76.6 µM | TGI (SNB-75 CNS): > 100 µM | TGI (OVCAR-4 ovarian): 35.9 µM | TGI (DLD-1 colon): 51.3 µM | TGI (XF 498 CNS): 47.5 µM | TGI (K-562 leukemia): 58.7 µM | TGI (NCI-H522 lung): 30.9 µM | TGI (EKVX NSCLC): 69.4 µM | TGI (IGROV1 ovarian): 94.7 µM | TGI (SN12C renal): 74.3 µM | TGI (SK-MEL-5 melanoma): 28.5 µM | TGI (SF-295 CNS): 48.5 µM | TGI (DMS 114 small cell lung): 53.5 µM | TGI (KM12 colon): 30.5 µM | TGI (RPMI-8226 leukemia): 41.3 µM | TGI (MALME-3M melanoma): 32.5 µM | TGI (SK-MEL-28 melanoma): 36.6 µM | TGI (SF-268 CNS): 57.6 µM | TGI (SNB-78 CNS): 81.7 µM | TGI (LOX IMVI melanoma): 35.1 µM | TGI (COLO 205 colon): 44.1 µM | TGI (UO-31 renal): 29.8 µM | TGI (UACC-257 melanoma): 35.4 µM | TGI (KM20L2 colon): 39.3 µM | TGI (A549 NSCLC): 39.2 µM | TGI (NCI-H460 lung): 33.8 µM | TGI (SF-539 CNS): 40.4 µM | TGI (OVCAR-3 ovarian): 38.4 µM | TGI (M14 melanoma): 33.5 µM

c1ccc2nc(-c3ccc4c(c3)OCO4)ccc2c1
TGI (HCC-2998 colon): > 100 µM | TGI (RXF 393 renal): 58.9 µM | TGI (LXFL 529 NSCLC): > 100 µM | TGI (NCI-H226 lung): 97.6 µM | TGI (HOP-62 NSCLC): 79.5 µM | TGI (HT29 colon): 79.7 µM | TGI (HOP-92 NSCLC): 19 µM | TGI (HL-60(TB) leukemia): > 100 µM | TGI (786-0 renal): > 100 µM | TGI (OVCAR-8 ovarian): > 100 µM | TGI (SW-620 colon): > 100 µM | TGI (ACHN renal): > 100 µM | TGI (OVCAR-5 ovarian): > 100 µM | TGI (NCI-H23 lung): > 100 µM | TGI (SK-MEL-2 melanoma): > 100 µM | TGI (SR leukemia): 43.9 µM | TGI (U251 CNS): > 100 µM | TGI (CAKI-1 renal): > 100 µM | TGI (TK-10 renal): > 100 µM | TGI (SNB-19 CNS): > 100 µM | TGI (DMS 273 small cell lung): 62.8 µM | TGI (SNB-75 CNS): > 100 µM | TGI (OVCAR-4 ovarian): > 100 µM | TGI (NCI-H522 lung): > 100 µM | TGI (EKVX NSCLC): > 100 µM | TGI (SN12C renal): > 100 µM | TGI (SF-295 CNS): > 100 µM | TGI (DMS 114 small cell lung): 67.5 µM | TGI (KM12 colon): > 100 µM | TGI (MALME-3M melanoma): 68 µM | TGI (SK-MEL-28 melanoma): > 100 µM | TGI (SF-268 CNS): > 100 µM | TGI (SNB-78 CNS): > 100 µM | TGI (LOX IMVI melanoma): 82.7 µM | TGI (COLO 205 colon): > 100 µM | TGI (UO-31 renal): 93.3 µM | TGI (UACC-257 melanoma): 48.7 µM | TGI (KM20L2 colon): > 100 µM | TGI (A549 NSCLC): > 100 µM | TGI (NCI-H460 lung): > 100 µM | TGI (SF-539 CNS): > 100 µM | TGI (OVCAR-3 ovarian): 71.1 µM | TGI (M14 melanoma): > 100 µM

Cc1c(-c2c(C)c(=O)c3c(C(C)C)c(=O)c(=O)c(C=O)c-3c2=O)c(O)c2c(C=O)c(O)c(O)c(C(C)C)c2c1O
TGI (RXF 393 renal): 6.99 µM | TGI (LXFL 529 NSCLC): 12.8 µM | TGI (HOP-62 NSCLC): 14.3 µM | TGI (HT29 colon): 4.87 µM | TGI (HOP-92 NSCLC): 7.49 µM | TGI (CCRF-CEM leukemia): 5.07 µM | TGI (MOLT-4 leukemia): 11.3 µM | TGI (HL-60(TB) leukemia): 11.1 µM | TGI (ACHN renal): 10.3 µM | TGI (OVCAR-5 ovarian): 7.82 µM | TGI (NCI-H23 lung): 10.5 µM | TGI (SK-MEL-2 melanoma): 3.68 µM | TGI (HCT-116 colon): 7.81 µM | TGI (SR leukemia): 17.1 µM | TGI (U251 CNS): 11.3 µM | TGI (M19-MEL melanoma): 15.4 µM | TGI (SK-OV-3 ovarian): 13 µM | TGI (SNB-19 CNS): 17.6 µM | TGI (SNB-75 CNS): 26.2 µM | TGI (OVCAR-4 ovarian): 12 µM | TGI (K-562 leukemia): 10.7 µM | TGI (NCI-H522 lung): 15.7 µM | TGI (IGROV1 ovarian): 11.3 µM | TGI (SF-295 CNS): 3.94 µM | TGI (DMS 114 small cell lung): 5.82 µM | TGI (KM12 colon): 4.9 µM | TGI (RPMI-8226 leukemia): 9.9 µM | TGI (MALME-3M melanoma): 15.2 µM | TGI (SK-MEL-28 melanoma): 16.4 µM | TGI (SF-268 CNS): 18.8 µM | TGI (SNB-78 CNS): 6.78 µM | TGI (UACC-62 melanoma): 8.14 µM | TGI (COLO 205 colon): 11.8 µM | TGI (UO-31 renal): 5.5 µM | TGI (UACC-257 melanoma): 13.6 µM | TGI (NCI-H460 lung): 11.8 µM | TGI (SF-539 CNS): 8.87 µM | TGI (OVCAR-3 ovarian): 7.02 µM | TGI (M14 melanoma): 4.24 µM

Source: PubChem BioAssay (NCI)
